Experimental findings from patent US20250345446A1 (Draupnir Bio ApS, priority 2022, published 2025) are described below.

SMILES strings stand for the structures. Residues, ends and D or L forms follow the SMILES beside them.

One assay addresses T1, soluble ectodomain of sortilin-6his (Homo sapiens, UniProt Q99523, V650M).
T1 construct: the soluble ectodomain of sortilin-6his is measured by microscale thermophoresis (MST)
Nature of the assay: MST binding to soluble ectodomain of sortilin-6his. Conditions: Table 3; monofunctional peptides; MST; read-out: KD score, binding to sortilin (Kd). The method, then: At this point the plate was sealed with adhesive strip and placed on an Eppendorf thermomixer to shake at 600 rpm for 3 min before spinning on a Fisherbrand plate-spinner for 15 seconds and further incubation 1 hrs at 19° C. MST was measured on a Monolith NT. Automated (Nanotemper) in standard-treated capillaries at 5% LED-power and high MST-power. Dose-response was extracted from the raw thermographs at 20 sec hot-time and the dissociation constant was estimated by sigmoidal curve fitting in MO. Affinity analysis program (Nanotemper). All experiments were run in duplicates.
The Kd is a measure of binding affinity in units of concentration. As to `CC(C)C[C@H](NC(=O)[C@H](CC(C)C)NC(=O)[C@H](CCC(N)=O)NC(=O)[C@@H](N)CCCNC(=N)N)C(=O)O` [compound 22, RQLL-OH] (H-RQLL-OH), the Kd was 25 to 250 nM.

Consider `CC(C)C[C@H](NC(=O)[C@H](CC(C)C)NC(=O)[C@H](CCC(N)=O)NC(=O)[C@@H](N)Cc1ccccc1)C(=O)O` [compound 23, FQLL-OH] (H-FQLL-OH), for which the dissociation constant Kd lay in the range of 25 to 250 nM. On the same count and under the same terms, then `CC(C)C[C@H](NC(=O)[C@H](CC(C)C)NC(=O)[C@H](CCC(N)=O)NC(=O)[C@@H](N)CCCCN)C(=O)O` [compound 24] (H-KQLL-OH), with 25 to 250 nM; and `CC(C)C[C@H](NC(=O)[C@H](CC(C)C)NC(=O)[C@H](CCC(N)=O)NC(=O)[C@@H]1CCCN1)C(=O)O` [compound 25] (H-PQLL-OH), with 25 to 250 nM. On the same count and under the same terms, in the case of `CC[C@H](C)[C@H](NC(=O)[C@H](Cc1ccc(O)cc1)NC(=O)[C@@H]1CCCN1)C(=O)N[C@@H](CC(C)C)C(=O)O` [compound 26] (H-PYIL-OH) it was 25 to 250 nM; in that of `CC(C)C[C@H](NC(=O)[C@H](CC(C)C)NC(=O)[C@H](Cc1ccc(O)cc1)NC(=O)[C@@H](N)CCCNC(=N)N)C(=O)O` [compound 27, RYLL-OH] (H-RYLL-OH), 25 to 250 nM.

Staying with this assay, now noted: Table 4; small molecule bifunctional compounds; MST.
As for `Cc1cc(-c2ccc(C(=O)NCCCCCCCCCCCC(=O)NCC(=O)N3CCN(c4ncc(-c5ccc6c(n5)N(Cc5cccnc5C#N)C(C)(C)C6=O)cn4)C[C@H]3C)cc2)cc(NC(=O)c2ccc(C(F)(F)F)cc2C(=O)O)n1` [BF146, 2-[[4-[4-[[12-[[2-[(2R)-4-[5-[1-[(2-cyano-3-pyridyl)methyl]-2,2-dimethyl-3-oxo-pyrrolo[2,3-b]pyridin-6-yl]pyrimidin-2-yl]-2-methyl-piperazin-1-yl]-2-oxo-ethyl]amino]-12-oxo-dodecyl]carbamoyl]phenyl]-6-methyl-2-pyridyl]carbamoyl]-5-(trifluoromethyl)benzoic acid], the “KD score, binding to sortilin (Kd)” value came out at 0.

Staying with this assay, now noted: Table 4; small molecule bifunctional compounds; MST; read-out: KD score, binding to sortilin (Kd).
In the case of `C[C@@H]1CN(c2ncc(-c3ccc4c(n3)N(Cc3cccnc3C#N)C(C)(C)C4=O)cn2)CCN1C(=O)Cn1cc(COCCOCCOCCOCCOCCOc2cccc(Oc3ccc(C(=O)N[C@@H](CCC(C)(C)C)C(=O)O)cn3)c2)nn1` [BF098, (2S)-2-[[6-[3-[2-[2-[2-[2-[2-[[1-[2-[(2R)-4-[5-[1-[(2-cyano-3-pyridyl)methyl]-2,2-dimethyl-3-oxo-pyrrolo[2,3-b]pyridin-6-yl]pyrimidin-2-yl]-2-methyl-piperazin-1-yl]-2-oxo-ethyl]triazol-4-yl]methoxy]ethoxy]ethoxy]ethoxy]ethoxy]ethoxy]phenoxy]pyridine-3-carbonyl]amino]-5,5-dimethyl-hexanoic acid], the dissociation constant Kd was < 1 nM. The same measure, in the same setting: in the case of `C[C@@H]1CN(c2ncc(-c3ccc4c(n3)N(Cc3cccnc3C#N)C(C)(C)C4=O)cn2)CCN1C(=O)CNC(=O)CCCCCOCCOCCNC(=O)c1cccc(Oc2ccc(C(=O)N[C@@H](CCC(C)(C)C)C(=O)O)cn2)c1` [BF100, (2S)-2-[[6-[3-[2-[2-[6-[[2-[(2R)-4-[5-[1-[(2-cyano-3-pyridyl)methyl]-2,2-dimethyl-3-oxo-pyrrolo[2,3-b]pyridin-6-yl]pyrimidin-2-yl]-2-methyl-piperazin-1-yl]-2-oxo-ethyl]amino]-6-oxo-hexoxy]ethoxy]ethylcarbamoyl]phenoxy]pyridine-3-carbonyl]amino]-5,5-dimethyl-hexanoic acid] it was < 1 nM.

For `C[C@@H]1CN(c2ncc(-c3ccc4c(n3)N(Cc3cccnc3C#N)C(C)(C)C4=O)cn2)CCN1C(=O)Cn1cc(COCCOCCOCCOCCOc2cccc(Oc3ccc(C(=O)N[C@@H](CCC(C)(C)C)C(=O)O)cn3)c2)nn1` [BF101, (2S)-2-[[6-[3-[2-[2-[2-[2-[[1-[2-[(2R)-4-[5-[1-[(2-cyano-3-pyridyl)methyl]-2,2-dimethyl-3-oxo-pyrrolo[2,3-b]pyridin-6-yl]pyrimidin-2-yl]-2-methyl-piperazin-1-yl]-2-oxo-ethyl]triazol-4-yl]methoxy]ethoxy]ethoxy]ethoxy]ethoxy]phenoxy]pyridine-3-carbonyl]amino]-5,5-dimethyl-hexanoic acid], the equilibrium dissociation constant (Kd) was 1 to 10 nM. The same measure, in the same setting: in the case of `C[C@@H]1CN(c2ncc(-c3ccc4c(n3)N(Cc3cccnc3C#N)C(C)(C)C4=O)cn2)CCN1C(=O)Cc1cn(CCCCCCCCCn2cc(-c3cccc(Oc4ccc(C(=O)N[C@@H](CCC(C)(C)C)C(=O)O)cn4)c3)nn2)nn1` [BF104, (2S)-2-[[6-[3-[1-[9-[4-[2-[(2R)-4-[5-[1-[(2-cyano-3-pyridyl)methyl]-2,2-dimethyl-3-oxo-pyrrolo[2,3-b]pyridin-6-yl]pyrimidin-2-yl]-2-methyl-piperazin-1-yl]-2-oxo-ethyl]triazol-1-yl]nonyl]triazol-4-yl]phenoxy]pyridine-3-carbonyl]amino]-5,5-dimethyl-hexanoic acid] it was < 1 nM. On the same count and under the same terms, then `C[C@@H]1CN(c2ncc(-c3ccc4c(n3)N(Cc3cccnc3C#N)C(C)(C)C4=O)cn2)CCN1C(=O)CNC(=O)CCCCCCCCn1cc(CCc2cccc(Oc3ccc(C(=O)N[C@@H](CCC(C)(C)C)C(=O)O)cn3)c2)nn1` [BF108, (2S)-2-[[6-[3-[2-[1-[9-[[2-[(2R)-4-[5-[1-[(2-cyano-3-pyridyl)methyl]-2,2-dimethyl-3-oxo-pyrrolo[2,3-b]pyridin-6-yl]pyrimidin-2-yl]-2-methyl-piperazin-1-yl]-2-oxo-ethyl]amino]-9-oxo-nonyl]triazol-4-yl]ethyl]phenoxy]pyridine-3-carbonyl]amino]-5,5-dimethyl-hexanoic acid], with 1 to 10 nM; and `C[C@@H]1CN(c2ncc(-c3ccc4c(n3)N(Cc3cccnc3C#N)C(C)(C)C4=O)cn2)CCN1C(=O)Cn1cc(COCCOCCOCC(=O)N2CC(Oc3cccc(Oc4ccc(C(=O)N[C@@H](CCC(C)(C)C)C(=O)O)cn4)c3)C2)nn1` [BF111, (2S)-2-[[6-[3-[1-[2-[2-[2-[[1-[2-[(2R)-4-[5-[1-[(2-cyano-3-pyridyl)methyl]-2,2-dimethyl-3-oxo-pyrrolo[2,3-b]pyridin-6-yl]pyrimidin-2-yl]-2-methyl-piperazin-1-yl]-2-oxo-ethyl]triazol-4-yl]methoxy]ethoxy]ethoxy]acetyl]azetidin-3-yl]oxyphenoxy]pyridine-3-carbonyl]amino]-5,5-dimethyl-hexanoic acid], with < 1 nM. On the same count and under the same terms, in the case of `C[C@@H]1CN(c2ncc(-c3ccc4c(n3)N(Cc3cccnc3C#N)C(C)(C)C4=O)cn2)CCN1C(=O)Cn1cc(COCCOCCOCC(=O)N2CCC(Oc3cccc(Oc4ccc(C(=O)N[C@@H](CCC(C)(C)C)C(=O)O)cn4)c3)CC2)nn1` [BF112, (2S)-2-[[6-[3-[[1-[2-[2-[2-[[1-[2-[(2R)-4-[5-[1-[(2-cyano-3-pyridyl)methyl]-2,2-dimethyl-3-oxo-pyrrolo[2,3-b]pyridin-6-yl]pyrimidin-2-yl]-2-methyl-piperazin-1-yl]-2-oxo-ethyl]triazol-4-yl]methoxy]ethoxy]ethoxy]acetyl]-4-piperidyl]oxy]phenoxy]pyridine-3-carbonyl]amino]-5,5-dimethyl-hexanoic acid] it was < 1 nM. With `C[C@@H]1CN(c2ncc(-c3ccc4c(n3)N(Cc3cccnc3C#N)C(C)(C)C4=O)cn2)CCN1C(=O)Cn1cc(COCCOCCN2CCN(CCOCCOc3cccc(Oc4ccc(C(=O)N[C@@H](CCC(C)(C)C)C(=O)O)cn4)c3)CC2)nn1` [BF113, (2S)-2-[[6-[3-[2-[2-[4-[2-[2-[[1-[2-[(2R)-4-[5-[1-[(2-cyano-3-pyridyl)methyl]-2,2-dimethyl-3-oxo-pyrrolo[2,3-b]pyridin-6-yl]pyrimidin-2-yl]-2-methyl-piperazin-1-yl]-2-oxo-ethyl]triazol-4-yl]methoxy]ethoxy]ethyl]piperazin-1-yl]ethoxy]ethoxy]phenoxy]pyridine-3-carbonyl]amino]-5,5-dimethyl-hexanoic acid], the Kd is < 1 nM.

As for `C[C@@H]1CN(c2ncc(-c3ccc4c(n3)N(Cc3cccnc3C#N)C(C)(C)C4=O)cn2)CCN1C(=O)Cn1cc(COCCOCCOC2CN(CCOCCOc3cccc(Oc4ccc(C(=O)N[C@@H](CCC(C)(C)C)C(=O)O)cn4)c3)C2)nn1` [BF114, (2S)-2-[[6-[3-[2-[2-[3-[2-[2-[[1-[2-[(2R)-4-[5-[1-[(2-cyano-3-pyridyl)methyl]-2,2-dimethyl-3-oxo-pyrrolo[2,3-b]pyridin-6-yl]pyrimidin-2-yl]-2-methyl-piperazin-1-yl]-2-oxo-ethyl]triazol-4-yl]methoxy]ethoxy]ethoxy]azetidin-1-yl]ethoxy]ethoxy]phenoxy]pyridine-3-carbonyl]amino]-5,5-dimethyl-hexanoic acid], the Kd was < 1 nM. Same read-out and setting: then `CC(C)(C)CC[C@H](NC(=O)c1ccc(Oc2cccc(OCC(=O)NCCOCCOCCOCCNc3ncc(-c4ccc5c(n4)N(Cc4cccnc4C#N)C(C)(C)C5=O)cn3)c2)nc1)C(=O)O` [BF137, (2S)-2-[[6-[3-[2-[2-[2-[2-[2-[[5-[1-[(2-cyano-3-pyridyl)methyl]-2,2-dimethyl-3-oxo-pyrrolo[2,3-b]pyridin-6-yl]pyrimidin-2-yl]amino]ethoxy]ethoxy]ethoxy]ethylamino]-2-oxo-ethoxy]phenoxy]pyridine-3-carbonyl]amino]-5,5-dimethyl-hexanoic acid], with < 1 nM; and `CC(C)(C)CC[C@H](NC(=O)c1ccc(Oc2cccc(OCC(=O)NCCOCCOCCOCCOc3ncc(-c4ccc5c(n4)N(Cc4cccnc4C#N)C(C)(C)C5=O)cn3)c2)nc1)C(=O)O` [BF139], with 1 to 10 nM. For `CC(C)(C)CC[C@H](NC(=O)c1ccc(Oc2cccc(OCC(=O)NCCOCCOCCOCCOCCOCCOc3ncc(-c4ccc5c(n4)N(Cc4cccnc4C#N)C(C)(C)C5=O)cn3)c2)nc1)C(=O)O` [BF143, (S)-2-(6-(3-((20-((5-(1-((2-cyanopyridin-3-yl)methyl)-2,2-dimethyl-3-oxo-2,3-dihydro-1H-pyrrolo[2,3-b]pyridin-6-yl)pyrimidin-2-yl)oxy)-2-oxo-6,9, 12, 15, 18-pentaoxa-3-azaicosyl)oxy)phenoxy)nicotinamido)-5,5-dimethylhexanoic acid], the Kd is 1 to 10 nM.
